Data published in ChEMBL document CHEMBL5113460, “Discovery of dual inhibitors of topoisomerase I and Cyclooxygenase-2 for colon cancer therapy” (Eur J Med Chem, 2022).
Activity calls are given as the source filed them. The calls are words filed in the database; no cut-off is given here.

Key:
HT-29 [1] = experiment: Induction of apoptosis in human HT-29 cells assessed as increase in cleaved caspase-3 protein level at 2 to 8 uM incubated for 24 hrs by western blot analysis; format: functional, cell-based; settings: dose 2-8 µM
HT-29 [2] = experiment: Antitumor activity against human HT-29 cells assessed as inhibition of cell proliferation incubated for 72 hrs by MTT assay; format: functional, cell-based; settings: HT-29, 72 h
HT-29 [3] = experiment: Induction of apoptosis in human HT-29 cells assessed as early apoptotic cells at 8 uM incubated for 24 hr by Annexin-V-FITC/PI staining based flow cytometry (Rvb=6.25%); format: functional
RKO [4] = experiment: Induction of apoptosis in human RKO cells assessed as viable cells at 3 uM incubated for 24 hr by Annexin-V-FITC/PI staining based flow cytometry (Rvb= 87.9%); format: functional; settings: read-out: Activity
[5] = molecular target: Prostaglandin G/H synthase 2 (Homo sapiens) (UniProt P35354); experiment: Inhibition of COX-2 (unknown origin) at 30 uM
HT-29 [6] = experiment: Inhibition of NF-kappaB signalling pathway in human HT-29 cells assessed as decrease in phosphorylated NF-kappaB p65 level at 2 to 8 uM incubated for 24 hrs by Western blot analysis; format: cell-based; settings: dose 2-8 µM
RKO [7] = experiment: Induction of apoptosis in human RKO cells assessed as increase in cytochrome c protein level at 3 to 9 uM incubated for 24 hrs by western blot analysis; format: functional, cell-based; settings: dose 3-9 µM
SW480 = experiment: Antitumor activity against human SW480 cells assessed as inhibition of cell proliferation incubated for 72 hrs by MTT assay; format: functional, cell-based; settings: SW480, 72 h
HT-29 [8] = experiment: Induction of apoptosis in human HT-29 cells assessed as increase in cytochrome c protein level at 2 to 8 uM incubated for 24 hrs by western blot analysis; format: functional, cell-based; settings: dose 2-8 µM
HT-29 [9] = experiment: Antitumor activity against human HT-29 cells xenografted in BALB/c mouse assessed as reduction of tumor weight at 30 mg/kg, ip bid and measured after 14 days; format: functional, organism-based; settings: time 14.0 day
HT-29 [10] = experiment: Induction of apoptosis in human HT-29 cells assessed as necrotic cells at 4 uM incubated for 24 hr by Annexin-V-FITC/PI staining based flow cytometry (Rvb=1.67%); format: functional
[11] = Tmax in Sprague-Dawley rat at 100 mg/kg, po and measured upto 24 hrs by LC-MS analysis; format: ADME, organism-based; settings: in vivo
HT-29 [12] = experiment: Antitumor activity against human HT-29 cells xenografted in BALB/c mouse assessed as inhibition of tumor cell proliferation at 15 mg/kg, ip bid for 14 days by Ki67 staining based immunohistochemical analysis (Rvb= 16.61+/-1.05%); format: functional; set-up: scale not given: the % may be the effect or the level left; settings: time 14 day
RKO [13] = experiment: Induction of apoptosis in human RKO cells assessed as decrease in Bcl-2 protein level at 3 to 9 uM incubated for 24 hrs by western blot analysis; format: functional, cell-based; settings: dose 3-9 µM
[14] = molecular target: T1, DNA topoisomerase 1 (Homo sapiens) (UniProt P11387); experiment: Inhibition of topoisomerase 1 (unknown origin) assessed as relaxation of supercoiled plasmid pBR322 DNA at 1 uM incubated for 45 mins by ethidium bromide staining based agarose gel electrophoresis
T1 sequence (whole entry): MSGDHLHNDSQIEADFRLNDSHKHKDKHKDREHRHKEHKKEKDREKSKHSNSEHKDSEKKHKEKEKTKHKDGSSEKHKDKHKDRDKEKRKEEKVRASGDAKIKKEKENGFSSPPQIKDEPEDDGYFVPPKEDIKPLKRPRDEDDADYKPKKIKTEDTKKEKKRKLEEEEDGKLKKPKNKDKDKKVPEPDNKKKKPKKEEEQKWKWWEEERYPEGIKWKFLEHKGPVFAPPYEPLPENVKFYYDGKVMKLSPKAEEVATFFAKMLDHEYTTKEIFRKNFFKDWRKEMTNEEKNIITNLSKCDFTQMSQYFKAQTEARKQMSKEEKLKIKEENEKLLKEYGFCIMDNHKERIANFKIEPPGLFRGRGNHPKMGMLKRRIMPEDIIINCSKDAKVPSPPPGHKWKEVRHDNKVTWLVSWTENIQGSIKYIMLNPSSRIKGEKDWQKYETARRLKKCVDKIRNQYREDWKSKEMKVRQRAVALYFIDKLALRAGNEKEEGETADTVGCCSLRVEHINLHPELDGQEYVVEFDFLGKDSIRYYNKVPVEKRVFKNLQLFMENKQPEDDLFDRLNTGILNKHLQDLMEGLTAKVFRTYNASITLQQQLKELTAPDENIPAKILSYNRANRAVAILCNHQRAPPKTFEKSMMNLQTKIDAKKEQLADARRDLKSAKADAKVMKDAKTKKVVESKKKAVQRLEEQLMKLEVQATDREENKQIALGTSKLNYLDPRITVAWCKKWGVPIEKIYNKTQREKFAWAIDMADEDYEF

RKO [15] = experiment: Induction of apoptosis in human RKO cells assessed as early apoptotic cells at 3 uM incubated for 24 hr by Annexin-V-FITC/PI staining based flow cytometry (Rvb= 7.27%); format: functional
[16] = Half life in Sprague-Dawley rat at 30 mg/kg, po and measured upto 12 hrs by LC-MS analysis; format: ADME, organism-based; settings: in vivo
[17] = Tmax in Sprague-Dawley rat at 30 mg/kg, po and measured upto 12 hrs by LC-MS analysis; format: ADME, organism-based; settings: in vivo
HT-29 [18] = experiment: Induction of apoptosis in human HT-29 cells assessed as decrease in Bcl-2 protein level at 2 to 8 uM incubated for 24 hrs by western blot analysis; format: functional, cell-based; settings: dose 2-8 µM
RKO [19] = experiment: Induction of apoptosis in human RKO cells assessed as increase in intracellular ROS level at 3 to 9 uM for 24 hrs by DCFH-DA staining-based flow cytometric analysis; format: functional, cell-based; settings: dose 3-9 µM
RKO [20] = experiment: Induction of cell cycle arrest in human RKO cells assessed as ratio of G1/G0 phase at 2 to 8 uM incubated for 24 hrs by flow cytometry (Rvb= 37.57%); format: functional; settings: dose 2-8 µM
RKO [21] = experiment: Induction of apoptosis in human RKO cells assessed as early apoptotic cells at 9 uM incubated for 24 hr by Annexin-V-FITC/PI staining based flow cytometry (Rvb= 7.27%); format: functional
HT-29 [22] = experiment: Induction of apoptosis in human HT-29 cells assessed as late apoptotic cells at 8 uM incubated for 24 hr by Annexin-V-FITC/PI staining based flow cytometry (Rvb=8.60%); format: functional
HT-29 [23] = experiment: Induction of apoptosis in human HT-29 cells assessed as reduction in mitochondrial membrane potential at 2 to 8 uM by TMRE staining based flow cytometry; format: functional, cell-based; settings: dose 2-8 µM
HT-29 [24] = experiment: Antitumor activity against human HT-29 cells xenografted in BALB/c mouse assessed as inhibition of tumor growth at 15 mg/kg, ip bid and measured after 14 days by vernier caliper method; format: functional; settings: HT-29, 336 h, time 14 day, read-out: TGI
RKO [25] = experiment: Inhibition of NF-kappaB signalling pathway in human RKO cells assessed as decrease in phosphorylated IkappaB level at 3 to 9 uM incubated for 24 hrs by Western blot analysis; format: cell-based; settings: dose 3-9 µM
HT-29 [26] = experiment: Induction of apoptosis in human HT-29 cells assessed as increase in intracellular ROS level at 2 to 8 uM for 24 hrs by DCFH-DA staining-based flow cytometric analysis; format: functional, cell-based; settings: dose 2-8 µM

Chain of Prostaglandin G/H synthase 2 (Homo sapiens) (P35354 whole entry, looked up): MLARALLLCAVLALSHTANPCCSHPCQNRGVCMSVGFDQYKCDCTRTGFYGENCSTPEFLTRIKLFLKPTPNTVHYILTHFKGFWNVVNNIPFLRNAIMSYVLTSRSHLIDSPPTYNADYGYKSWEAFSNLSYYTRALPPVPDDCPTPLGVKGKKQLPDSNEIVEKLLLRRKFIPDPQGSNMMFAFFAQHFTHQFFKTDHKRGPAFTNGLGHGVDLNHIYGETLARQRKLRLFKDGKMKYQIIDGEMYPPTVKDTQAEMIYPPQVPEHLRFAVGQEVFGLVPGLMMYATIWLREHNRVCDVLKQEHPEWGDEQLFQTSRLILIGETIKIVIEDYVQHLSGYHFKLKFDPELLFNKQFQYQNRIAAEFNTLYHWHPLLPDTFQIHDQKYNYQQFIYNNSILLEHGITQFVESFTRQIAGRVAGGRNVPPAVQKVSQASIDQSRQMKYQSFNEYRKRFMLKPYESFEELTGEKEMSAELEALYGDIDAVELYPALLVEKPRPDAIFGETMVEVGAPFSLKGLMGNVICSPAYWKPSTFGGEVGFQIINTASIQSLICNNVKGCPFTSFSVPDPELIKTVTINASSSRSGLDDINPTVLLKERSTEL

Structure (SMILES): Cc1c(Cl)cccc1Nc1ccccc1C(=O)Nc1ccc(N2CCNCC2)cc1
- Activity (HT-29 [1]): Active
- IC50 (HT-29 [2]): 1.48 µM
- Activity (HT-29 [3]): 3.96%
- viability at 3 µM (RKO [4]): 88%
- inhibition [5]: 100%
- inhibition (HT-29 [6]): Active
- Activity (RKO [7]): Active
- IC50 (SW480): 7.36 µM
- Activity (HT-29 [8]): Active
- Activity (HT-29 [9]): Active
- Activity (HT-29 [10]): 1.06%
- Tmax [11]: 3.67 h
- Activity (HT-29 [12]): 3.74%
- Activity (RKO [13]): Active
- inhibition [14]: 53.2%
- Activity (RKO [15]): 6.88%
- half-life [16]: 4.27 h
- Tmax [17]: 0.28 h
- Activity (HT-29 [18]): Active
- Activity (RKO [19]): Active
- Activity (RKO [20]): 76.99%
- Activity (RKO [21]): 22.7%
- Activity (HT-29 [22]): 26.1%
- Activity (HT-29 [23]): Active
- inhibition in vivo at 15 mg/kg (HT-29 [24]): 40.7%
- inhibition (RKO [25]): Active
- Activity (HT-29 [26]): Active
